Earlier results as cited in patent US8486621B2, “Nucleic acid-based matrixes” (Cornell Research Foundation, Inc., priority 2005, dated 2013).

Columns and labels:
[1] = test system: major and minor grooves of the DNA molecules
[2] = test system: plasma glucose, insulin, and triglyceride levels; settings: in vivo
PPAR-gamma = molecular target: T1, PPAR-gamma (Homo sapiens, UniProt P37231); settings: context-specific, some cell types
T1 sequence (P37231 1-505): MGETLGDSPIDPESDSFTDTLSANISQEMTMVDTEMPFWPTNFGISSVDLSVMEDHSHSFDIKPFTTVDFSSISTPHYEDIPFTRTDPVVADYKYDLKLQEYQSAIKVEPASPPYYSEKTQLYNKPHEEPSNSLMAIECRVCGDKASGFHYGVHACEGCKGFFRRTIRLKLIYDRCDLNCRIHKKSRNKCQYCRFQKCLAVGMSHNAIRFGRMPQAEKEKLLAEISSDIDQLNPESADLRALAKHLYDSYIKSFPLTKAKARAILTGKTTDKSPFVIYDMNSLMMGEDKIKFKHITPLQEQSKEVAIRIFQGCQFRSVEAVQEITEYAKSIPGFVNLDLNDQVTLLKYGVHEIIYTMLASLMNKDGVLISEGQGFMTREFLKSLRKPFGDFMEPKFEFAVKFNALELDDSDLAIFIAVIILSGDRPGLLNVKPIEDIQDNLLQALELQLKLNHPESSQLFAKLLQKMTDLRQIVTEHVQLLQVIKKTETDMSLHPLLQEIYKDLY

Structure (SMILES)	affinity to DNA [1]	efficacy in lowering plasma glucose, insulin, and triglyceride levels [2]	potency relative to rosiglitazone [2]	mode of action at PPAR-gamma (PPAR-gamma)
CC[C@@]1(O)C(=O)OCc2c1cc1n(c2=O)Cc2cc3ccccc3nc2-1 [CPT, (S)-(+)-camptothecin]	high affinity			
O=C1NC(=O)C(Cc2ccc3cc(OCc4ccccc4F)ccc3c2)S1 (stereo not shown) [netoglitazone, 5-[{6-(2-fluorobenzyl)oxy-2-naphthyl}methyl]-2,4-thiazolidinedione]		more efficacious than pioglitazone and troglitazone	about three-fold more potent than rosiglitazone	full agonist of PPAR-gamma and as a partial agonist or antagonist in others
